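Test compounds were applied to cells in 96-well plates for 48 hours at 5 doses. GI50: concentration for 50% inhibition of growth.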 The source made the active and inactive calls. Rule as the data show it: active = GI50 up to about 1.1 µM and inactive = higher.
Experiments:
Assay in all cases: NCI-60 cell line screen, 48 h
[1] = test system: MOLT-4
[2] = test system: HCT-15
[3] = test system: SW-620
[4] = test system: SNB-19
[5] = test system: K562
[6] = test system: SF-295
[7] = test system: A498
[8] = test system: UACC-62
[9] = test system: NCI-H522
[10] = test system: SF-268
[11] = test system: COLO 205
[12] = test system: HCT-116
[13] = test system: NCI-H460
[14] = test system: SF-539
[15] = test system: RXF 393
[16] = test system: HT-29
[17] = test system: HOP-62
[18] = test system: SR

Structure (SMILES) | GI50 [1] | GI50 [2] [µM] | GI50 [3] | GI50 [4] | GI50 [5] | GI50 [6] | GI50 [7] | GI50 [8] | GI50 [9] | GI50 [10] | GI50 [11] | GI50 [12] | GI50 [13] | GI50 [14] | GI50 [15] | GI50 [16] | GI50 [17] | GI50 [18]
COc1cc(/C=N/N=C(\N)NO)c(Cl)cc1O | > 100 µM (inactive) | 46.5 | 77.8 µM (inactive) | > 100 µM (inactive) | 83.2 µM (inactive) | 96.2 µM (inactive) | 99.8 µM (inactive) | 47.1 µM (inactive) | 31.4 µM (inactive) | 85.1 µM (inactive) | 38.2 µM (inactive) | 38.6 µM (inactive) | > 10 µM (inactive) | 81.3 µM (inactive) | 81.5 µM (inactive) | 44.5 µM (inactive) | – | –
CC1(Br)C(=O)NC(=O)N(C2CC(N=[N+]=[N-])C(CO)O2)C1N=[N+]=[N-] (stereo not drawn) | > 100 µM (inactive) | > 100 | > 100 µM (inactive) | > 100 µM (inactive) | > 100 µM (inactive) | > 100 µM (inactive) | > 100 µM (inactive) | > 100 µM (inactive) | 23.1 µM (inactive) | > 100 µM (inactive) | > 100 µM (inactive) | – | > 100 µM (inactive) | > 100 µM (inactive) | 91.8 µM (inactive) | > 100 µM (inactive) | > 100 µM (inactive) | –
CC1=C(/C=C/C2=CC(=C\C(=O)O)/CC(C3=C(C)CCCC3(C)C)C2)C(C)(C)CCC1 (stereo not drawn) | 3.01 µM (inactive) | – | 15 µM (inactive) | 14.3 µM (inactive) | – | 10.1 µM (inactive) | 15.2 µM (inactive) | 10.9 µM (inactive) | 10.6 µM (inactive) | 20.9 µM (inactive) | 16.4 µM (inactive) | 15 µM (inactive) | 13.9 µM (inactive) | 16.8 µM (inactive) | 10.8 µM (inactive) | 13.6 µM (inactive) | 14 µM (inactive) | 5.65 µM (inactive)
Oc1ccncc1-c1cnccc1O | > 100 µM (inactive) | > 100 | > 100 µM (inactive) | – | > 100 µM (inactive) | > 100 µM (inactive) | > 100 µM (inactive) | > 100 µM (inactive) | > 100 µM (inactive) | – | > 100 µM (inactive) | > 100 µM (inactive) | 37.5 µM (inactive) | > 100 µM (inactive) | > 100 µM (inactive) | > 100 µM (inactive) | – | –
CC(=O)O[C@]12CCCCC1C1(O)C(O)CCCCC12 (stereo partly drawn) | > 100 µM (inactive) | > 100 | > 100 µM (inactive) | > 100 µM (inactive) | > 100 µM (inactive) | > 100 µM (inactive) | – | > 100 µM (inactive) | > 100 µM (inactive) | > 100 µM (inactive) | > 100 µM (inactive) | > 100 µM (inactive) | > 100 µM (inactive) | – | > 100 µM (inactive) | > 100 µM (inactive) | > 100 µM (inactive) | > 100 µM (inactive)
C=C(COC(C)=O)CC(OC(C)=O)c1ccccc1 (stereo not drawn) | 52.2 µM (inactive) | > 100 | > 100 µM (inactive) | > 100 µM (inactive) | > 100 µM (inactive) | > 100 µM (inactive) | > 100 µM (inactive) | > 100 µM (inactive) | > 100 µM (inactive) | > 100 µM (inactive) | > 100 µM (inactive) | > 100 µM (inactive) | > 100 µM (inactive) | > 100 µM (inactive) | > 100 µM (inactive) | > 100 µM (inactive) | > 100 µM (inactive) | –
CCOC(=O)/C(=C/c1cc(OC)ccc1OC)CC(=O)O | > 25.7 µM (inactive) | > 43.7 | > 100 µM (inactive) | > 100 µM (inactive) | > 31.6 µM (inactive) | > 100 µM (inactive) | > 100 µM (inactive) | > 100 µM (inactive) | > 100 µM (inactive) | > 100 µM (inactive) | > 100 µM (inactive) | > 100 µM (inactive) | > 100 µM (inactive) | > 100 µM (inactive) | > 100 µM (inactive) | > 94.4 µM (inactive) | > 10 µM (inactive) | > 100 µM (inactive)
[O-][S+]1CSSC1 | 5.36 µM (inactive) | – | 15 µM (inactive) | 41.6 µM (inactive) | 3.07 µM (inactive) | 20.7 µM (inactive) | 43.8 µM (inactive) | 10.4 µM (inactive) | 11.4 µM (inactive) | 26.2 µM (inactive) | 17.1 µM (inactive) | 16.2 µM (inactive) | – | 19.7 µM (inactive) | 19.9 µM (inactive) | 7.64 µM (inactive) | 36.3 µM (inactive) | 9.79 µM (inactive)
Cc1cc(C)cc(NC(=O)CCC(=O)C2CCC/C2=N\NC(=O)C(=O)NN)c1 (stereo not drawn) | > 100 µM (inactive) | > 100 | > 100 µM (inactive) | > 100 µM (inactive) | > 100 µM (inactive) | > 100 µM (inactive) | > 100 µM (inactive) | > 100 µM (inactive) | – | > 100 µM (inactive) | > 100 µM (inactive) | > 100 µM (inactive) | > 100 µM (inactive) | > 100 µM (inactive) | > 100 µM (inactive) | > 100 µM (inactive) | – | –
N#CC1=C(O)NC(O)=C(C#N)C1c1ccc(C2C(C#N)=C(O)NC(O)=C2C#N)cc1 | 94.6 µM (inactive) | 50.8 | > 100 µM (inactive) | > 100 µM (inactive) | 53.2 µM (inactive) | > 100 µM (inactive) | > 100 µM (inactive) | > 100 µM (inactive) | 19.7 µM (inactive) | > 100 µM (inactive) | 26.8 µM (inactive) | > 100 µM (inactive) | 46.5 µM (inactive) | > 100 µM (inactive) | > 100 µM (inactive) | > 100 µM (inactive) | > 100 µM (inactive) | –
Cc1ccc(S(=O)(=O)N(/N=C(\N)Oc2ccc(Cl)cc2)C(=N)Oc2ccc(Cl)cc2)cc1 | > 100 µM (inactive) | > 100 | > 100 µM (inactive) | > 100 µM (inactive) | > 100 µM (inactive) | > 100 µM (inactive) | > 100 µM (inactive) | > 100 µM (inactive) | > 100 µM (inactive) | > 100 µM (inactive) | > 100 µM (inactive) | > 100 µM (inactive) | > 100 µM (inactive) | > 100 µM (inactive) | 74.1 µM (inactive) | > 100 µM (inactive) | > 100 µM (inactive) | > 100 µM (inactive)
c1cc(N(CCn2cccn2)CCn2cccn2)cc(N(CCn2cccn2)CCn2cccn2)c1 | > 100 µM (inactive) | > 100 | > 100 µM (inactive) | > 100 µM (inactive) | > 100 µM (inactive) | > 100 µM (inactive) | > 100 µM (inactive) | > 100 µM (inactive) | > 100 µM (inactive) | > 100 µM (inactive) | > 100 µM (inactive) | > 100 µM (inactive) | > 100 µM (inactive) | – | > 100 µM (inactive) | – | > 100 µM (inactive) | > 100 µM (inactive)
C#CCN(Cc1ccc2nc(-c3ccccc3)c(N)nc2c1)c1cc(OC)c(OC)c(OC)c1 | 12.5 µM (inactive) | 31.9 | 36.5 µM (inactive) | 40.5 µM (inactive) | 23.8 µM (inactive) | 18.7 µM (inactive) | – | 20 µM (inactive) | 20.9 µM (inactive) | 40.7 µM (inactive) | 21.2 µM (inactive) | 19.2 µM (inactive) | 22 µM (inactive) | 36.6 µM (inactive) | 25.5 µM (inactive) | 23.4 µM (inactive) | 39.2 µM (inactive) | 13.9 µM (inactive)
Cc1ccc(S(=O)(=O)c2ccc(C)cc2[N+](=O)[O-])c([N+](=O)[O-])c1 | > 10 µM (inactive) | > 100 | > 100 µM (inactive) | > 100 µM (inactive) | > 100 µM (inactive) | > 100 µM (inactive) | – | > 100 µM (inactive) | > 100 µM (inactive) | > 100 µM (inactive) | > 100 µM (inactive) | > 100 µM (inactive) | > 100 µM (inactive) | > 100 µM (inactive) | > 100 µM (inactive) | > 100 µM (inactive) | > 100 µM (inactive) | > 100 µM (inactive)
O=[N+]([O-])c1ccc(/C=C/c2csnn2)cc1 | > 100 µM (inactive) | > 100 | > 100 µM (inactive) | > 100 µM (inactive) | > 100 µM (inactive) | > 100 µM (inactive) | – | > 100 µM (inactive) | > 100 µM (inactive) | > 100 µM (inactive) | – | > 100 µM (inactive) | > 100 µM (inactive) | > 100 µM (inactive) | > 100 µM (inactive) | > 100 µM (inactive) | > 100 µM (inactive) | –
CC1(C)CC(N2CCN(C3CC(C)(C)NC(C)(C)C3)CC2)CC(C)(C)N1 | > 100 µM (inactive) | > 100 | > 100 µM (inactive) | > 100 µM (inactive) | > 100 µM (inactive) | > 100 µM (inactive) | > 100 µM (inactive) | > 100 µM (inactive) | > 100 µM (inactive) | > 100 µM (inactive) | – | > 100 µM (inactive) | > 100 µM (inactive) | > 100 µM (inactive) | > 100 µM (inactive) | > 100 µM (inactive) | > 100 µM (inactive) | > 100 µM (inactive)
COc1cc2c3cc1Oc1c(OC)c(OC)cc4c1[C@@H](Cc1ccc(O)c(c1)Oc1ccc(cc1)C[C@@H]3N(C)CC2)N(C)CC4.c1ccccc1 | 10.9 µM (inactive) | 12.3 | 16.2 µM (inactive) | 20.4 µM (inactive) | 8.69 µM (inactive) | 16.4 µM (inactive) | 20.3 µM (inactive) | 16 µM (inactive) | 7.55 µM (inactive) | 23.2 µM (inactive) | – | 9.16 µM (inactive) | 25.2 µM (inactive) | 3.71 µM (inactive) | 12.4 µM (inactive) | 10.7 µM (inactive) | 18.1 µM (inactive) | 2.33 µM (inactive)

From ChEMBL document CHEMBL1201862, “PubChem BioAssay data set” (2004)
